Earlier results, collected in patent publication US6979677B1, “Inhibition of vascular smooth muscle cell proliferation” (priority 1994, dated 2005).

Assays:
cerebral glioma = conditions: rats with HSV-tk-expressing murine fibroblasts, given GCV
lymphomas = conditions: of 12 mice treated with GCV
[1] = system: transplantable murine adenocarcinoma; conditions: HSV-tk transfected adenocarcinoma treated with GCV
[2] = system: nondividing rabbit arterial cells

Nc1nc(O)c2ncn(COC(CO)CO)c2n1 [GCV, ganciclovir]
glioma regression, microscopically and macroscopically (cerebral glioma): regressed completely
number of mice with complete tumor regression (lymphomas): 11
tumor response in vivo [1]: regression
expression of HSV-tk-β-galactosidase construct under GCV treatment [2]: unaffected
